Assay results from patent US6869955B2, “Tetrahydropteridines and pyridylpiperazines for treatment of neurological disorders” (Bristol-Myers Squibb Pharma Company, priority 1996, dated 2005).

SMILES | melting point [°C]
CCCCN1C(=O)CN2C(=O)CN(c3ccc(C(C)C)cc3Br)c3nc(C)nc1c32 [Example 501, 10-[2-bromo-4-(1-methylethyl)-phenyl]-4-butyl-9,10-dihydro-2-methyl-4H,8H-pyrazino[3,2,1-de]pteridine-5,8(6H)-dione] | 207 to 208
CCCCN(CC)c1nc(C)nc2c1NC(=S)CN2c1ccc(C(C)C)cc1Br [Example 131, 8-(2-bromo-4-isopropylphenyl)-4-(ethylbutylamino)-2-methyl-5,6,7,8-tetrahydropteridin-6-thione] | 148 to 149
CCCCN(CC)c1nc(C)nc2c1NC(=O)CN2c1ccc(C(C)C)cc1Br [Example 1, 8-(2-bromo-4-isopropylphenyl)-4-(ethylbutylamino)-2-methyl-5,6,7,8-tetrahydropteridin-6-one] | 146 to 147
Cc1nc(-c2ccccc2C(F)(F)F)c2c(n1)N(c1ccc(C(C)C)cc1Br)CC(=O)N2 [Example 17, 8-(2-bromo-4-isopropylphenyl)-2-methyl-4-(2-trifluoromethylphenyl)-5,6,7,8-tetrahydropteridin-6-one] | 238 to 239
